Test results as given in ChEMBL document CHEMBL2074036, “Renal transport of organic compounds mediated by mouse organic anion transporter 3 (mOat3): further substrate specificity of mOat3” (Drug Metab Dispos, 2004).

T1: Organic anion transporter 3 (Mus musculus, UniProt O88909)
T1 sequence (O88909 whole entry): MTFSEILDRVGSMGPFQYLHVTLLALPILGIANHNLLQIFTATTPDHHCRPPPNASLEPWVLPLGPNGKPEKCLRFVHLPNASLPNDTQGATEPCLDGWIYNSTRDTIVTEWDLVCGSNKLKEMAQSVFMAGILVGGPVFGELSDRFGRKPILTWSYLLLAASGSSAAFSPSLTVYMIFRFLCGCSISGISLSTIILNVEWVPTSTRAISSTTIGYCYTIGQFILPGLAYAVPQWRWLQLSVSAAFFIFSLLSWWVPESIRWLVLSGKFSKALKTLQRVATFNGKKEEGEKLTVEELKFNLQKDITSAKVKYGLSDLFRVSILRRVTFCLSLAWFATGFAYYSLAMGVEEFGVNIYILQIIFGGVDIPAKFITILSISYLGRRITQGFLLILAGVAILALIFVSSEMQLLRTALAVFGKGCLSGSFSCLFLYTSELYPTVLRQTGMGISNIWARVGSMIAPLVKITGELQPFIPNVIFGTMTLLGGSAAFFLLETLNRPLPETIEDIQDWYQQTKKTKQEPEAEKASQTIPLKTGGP

T2: Oat3 (organic anion transporter 3) (Mus musculus, UniProt O88909)
T2 sequence (O88909 whole entry): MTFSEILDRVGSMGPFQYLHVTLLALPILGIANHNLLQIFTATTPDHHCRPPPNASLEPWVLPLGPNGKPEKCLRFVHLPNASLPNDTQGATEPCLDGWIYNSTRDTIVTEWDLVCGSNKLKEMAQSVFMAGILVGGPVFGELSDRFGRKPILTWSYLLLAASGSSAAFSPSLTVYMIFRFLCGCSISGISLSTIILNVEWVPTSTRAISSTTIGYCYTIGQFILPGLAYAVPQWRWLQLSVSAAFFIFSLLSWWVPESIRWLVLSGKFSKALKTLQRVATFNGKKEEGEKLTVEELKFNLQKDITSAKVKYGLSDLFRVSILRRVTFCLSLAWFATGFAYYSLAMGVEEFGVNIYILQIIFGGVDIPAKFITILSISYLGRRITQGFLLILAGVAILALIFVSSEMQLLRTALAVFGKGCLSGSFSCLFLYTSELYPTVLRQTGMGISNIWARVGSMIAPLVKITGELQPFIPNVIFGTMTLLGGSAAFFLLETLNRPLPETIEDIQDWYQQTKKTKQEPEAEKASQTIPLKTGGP


What was measured:
[1] = biological target: T1, Organic anion transporter 3; assay: (§1) TP_TRANSPORTER: uptake in mOat3-expressing oocytes; type: functional, cell-based; conditions: oocyte
[2] = biological target: T2, Oat3 (organic anion transporter 3); assay: TP_TRANSPORTER: inhibition of PHA uptake (PHA: 1000uM) in mOat3-expressing oocytes; type: functional, cell-based, Oocyte; parameters: scale not given: the % may be the effect or the level left; conditions: probe PHA (1000 uM)
[3] = biological target: T2, Oat3 (organic anion transporter 3); assay: TP_TRANSPORTER: inhibition of PHA uptake (PHA: 1000uM) by P-aminohippuric acid at a concentration of 10uM in mOat3-expressing oocytes; type: functional, cell-based, Oocyte; parameters: scale not given: the % may be the effect or the level left; conditions: probe PHA (1000 uM), read-out: Activity
[4] = substrate: C[N+](C)(C)C[C@H](O)CC(=O)[O-]; assay: as §1; type: functional, cell-based, Oocyte
[5] = substrate: Sc1ncnc2nc[nH]c12; assay: as §1; type: functional, cell-based, Oocyte
[6] = substrate: O=c1[nH]cc(F)c(=O)[nH]1; assay: as §1; type: functional, cell-based, Oocyte

Molecule | Activity [1] | Activity [2] [%] | further results
CCCCC[C@H](O)/C=C/[C@@H]1[C@@H](C/C=C\CCCC(=O)O)[C@@H](O)C[C@H]1O [DINOPROST] | substrate [] | – | –
CN1C(C(=O)Nc2ccccn2)=C(O)c2sccc2S1(=O)=O [TENOXICAM] | – | 55 | –
Nc1ccc(C(=O)NCC(=O)O)cc1 [AMINOHIPPURIC ACID] | substrate [] | – | activity at 10 µM [3]: 20%
CCCCC[C@H](O)/C=C/[C@H]1[C@H](O)CC(=O)[C@@H]1C/C=C\CCCC(=O)O [DINOPROSTONE] | substrate [] | – | –
CN/C(=N/CCSCc1nc[nH]c1C)NC#N [CIMETIDINE] | – | 65 | –
Oc1ncnc2[nH]ncc12 [ALLOPURINOL] | substrate [] | – | –
C[C@]12CC[C@@H]3c4ccc(OS(=O)(=O)O)cc4CC[C@H]3[C@@H]1CCC2=O [ESTRONE SULFURIC ACID] | substrate [] | – | –
CCOC(=O)[C@H](CCc1ccccc1)N[C@@H](C)C(=O)N1CCC[C@H]1C(=O)O | – | 45 | –
CC(C)Cc1ccc(C(C)C(=O)O)cc1 (stereo not drawn) [IBUPROFEN] | – | 80 | –
Organic anion transporter 3 (Mus musculus) (protein) MTFSEILDRVGSMGPFQYLHVTLLALPILGIANHNLLQIFTATTPDHHCRPPPNASLEPWVLPLGPNGKPEKCLRFVHLPNASLPNDTQGATEPCLDGWIYNSTRDTIVTEWDLVCGSNKLKEMAQSVFMAGILVGGPVFGELSDRFGRKPILTWSYLLLAASGSSAAFSPSLTVYMIFRFLCGCSISGISLSTIILNVEWVPTSTRAISSTTIGYCYTIGQFILPGLAYAVPQWRWLQLSVSAAFFIFSLLSWWVPESIRWLVLSGKFSKALKTLQRVATFNGKKEEGEKLTVEELKFNLQKDITSAKVKYGLSDLFRVSILRRVTFCLSLAWFATGFAYYSLAMGVEEFGVNIYILQIIFGGVDIPAKFITILSISYLGRRITQGFLLILAGVAILALIFVSSEMQLLRTALAVFGKGCLSGSFSCLFLYTSELYPTVLRQTGMGISNIWARVGSMIAPLVKITGELQPFIPNVIFGTMTLLGGSAAFFLLETLNRPLPETIEDIQDWYQQTKKTKQEPEAEKASQTIPLKTGGP | – | – | Km [4]: 0.0619 µM; Km [5]: 4.01 µM; Km [6]: 0.0539 µM
